This is an account of results in PMC10671849, “Synthesis and Evaluation of Marine-Inspired Compounds Result in Hybrids with Antitrypanosomal and Antileishmanial Activities” (Marine Drugs, 2023).

The subject of assay [1] is T. brucei Lister 427 bloodstream forms. Description: Anti-T. brucei activity, resazurin-based assay on bloodstream forms. The format is cell-based, Trypanosoma brucei. As to conditions: for IC50: Trypanosoma brucei, read-out: Anti-Parasitic Activity IC50 (µM) 95% CI, T. brucei. The procedure:
T. brucei Lister 427 bloodstream forms were grown in a humidified incubator at 37 °C and 5% CO2 in complete HMI-9 medium supplemented with 10% heat-inactivated fetal bovine serum (FBS) and 100 UI/mL penicillin/streptomycin. Parasite maintenance was performed in T25 ventilated flasks by subpassage at a concentration of 1 × 10^4/mL every 2 days in T25 ventilated flasks. Luciferase-expressing L. infantum (MHOM/MA/67/ITMAP-263) axenic amastigotes expressing episomal luciferase were maintained in MAA20 [31] at 37 °C in a 5% CO2 environment with subculture every 7 days at 1 × 10^6/mL in 5-mL T25 ventilated flasks.
The compounds’ efficacy against bloodstream-stage trypomastigotes was evaluated using a resazurin-based assay. Parasites were added to 100 µL of serial dilutions of compounds in supplemented complete medium at a cell density of 5 × 10^3/mL. As a quality control, a dose–response curve for the antitrypanosomal pentamidine was included in all the assays. The final volume of the assay was 200 µL/well. Each condition was carried out in duplicate. Following 72 h of incubation at the specific conditions for parasites, 20 […] of a 0.5 mM resazurin solution was added, and the plates were incubated for a further 4 h under the same conditions. Fluorescence was measured at 544 nm and 590 nm excitation and emission wavelength, respectively, using a Synergy 2 Multi-Mode Reader (Biotek, Winooski, VT, USA). The results are shown as % of parasite growth inhibition compared to control (untreated parasites) and represent the average of at least three independent experiments. The effect was evaluated by the determination of the IC50 value (concentration required to inhibit growth in 50%) and calculated by non-linear regression curves using GraphPad Prism software, version 8.1.1 for Windows (GraphPad Software, San Diego, CA, USA).
(The colour change of resazurin is a common sign of viable cells or microbes.)

Assay [2] deals with Escherichia coli ATCC 25922. As to the kind of experiment: Antibacterial broth microdilution (CLSI M100-S25), MIC/MLC. Type of assay: cell-based. The procedure: (§1) All tested compounds (9a–9d, 10a–10c, 13, 14, and eugenol (1)) were prepared in DMSO (Sigma-Aldrich, St. Louis, MO, USA) at a concentration of 10 mg/mL. The reference drugs used (voriconazole (Sigma-Aldrich, St. Louis, MO, USA) for fungi and quality control; gentamicin (Sigma-Aldrich, St. Louis, MO, USA) for bacterial and quality control) were prepared at 6.4 mg/mL. The stock solutions of the compounds were stored at –20 °C until immediately before the assays and then were diluted in fresh culture medium, RPMI-1640 medium (Biochrom AG, Berlin, Germany) buffered with 3-(N-morpholino)propanesulfonic acid (MOPS—Sigma-Aldrich, St. Louis, MO, USA) for fungi and cation-adjusted Mueller–Hinton broth (MHBII—Becton Dickinson, France) for bacteria, henceforth referred to as RPMI and MHB, respectively.
(§2) Fungal strains, including reference strains and clinical isolates, were used for the study of the antifungal activity: a yeast reference strain from American Type Culture Collection (ATCC), Candida albicans ATCC 10231; filamentous fungi reference strain Aspergillus fumigatus ATCC 240305; and a clinical isolate of dermatophytes Trichophyton rubrum FF5. Candida krusei ATCC 6258 was used as a quality control. All fungal strains were stored in Sabouraud dextrose broth (SDB—Bio-Mèrieux, Marcy L’Etoile, France) with glycerol (20%) at −80 °C and were subcultured in Sabouraud dextrose agar (SDA—Bio-Mèrieux, Marcy L’Etoile, France) for 24–72 h (yeasts and A. fumigatus) or 5–7 days (T. rubrum) before each assay to obtain optimal growth and purity conditions. Two bacteria strains were used, one Gram positive and one Gram negative: Staphylococcus aureus ATCC 25923 and Escherichia coli ATCC 25922, respectively. The bacterial strains were stored in trypticase soy broth (TSB—Biolife, Milan, Italy) with glycerol (10%) at −80 °C and subcultured in Mueller–Hinton agar (MHA—Bio-Mèrieux, Marcy L’Etoile, France) for 24 h before each assay.
(§3) For bacteria, MICs were determined by the broth microdilution method, following the recommendations of the reference method M100-S25 [29].
(§4) Similarly, as previous described, two-fold serial dilutions of each stock solution were prepared using MHB to obtain a range of test concentrations from 16 to 512 μg/mL. Bacterial cell suspensions were prepared from 24-h cultures in saline solution, and the transmittance of cell density was adjusted to 0.5 McFarland standard. Dilutions were performed using MHB to obtain cell final concentrations in the plate of 0.5–2.5 × 10^4 CFU/mL.
(§5) Plates with the prepared serial dilutions of the tested compounds were inoculated with the same volume of the bacterial suspension, and sterility, growth and DMSO controls were included in each assay. Immediately thereafter, the plates were incubated in a humid atmosphere (aerobic environment) for 18–24 h at 36 °C.
(§6) MIC values were considered the minimum concentrations that inhibited the bacterial growth by 100% compared to the growth control. The reference drug, gentamicin, was tested as a quality control, and the results were according to the norms.
(§7) A volume of 10 μL of suspension was collected from wells corresponding to the MIC and the highest following concentration and was deposited in MHA plates. The plates were incubated for 24 h at 36 °C, and the MLC was determined as the lowest concentration at which no bacterial growth was observed.
(In general: In broth dilution the organism is exposed to a series of concentrations in liquid medium.)

Assay [3] has as its system Staphylococcus aureus ATCC 25923. Described as above. Type of assay: cell-based. Here is the method:
as §1, §2, §3, §4, §5, §6, §7

The mark [4] stands for this setting: bloodstream forms, 72 h incubation, resazurin.
Where [5] appears, read: ATCC25922, broth microdilution, 16 to 512 µg/mL, 18–24 h at 36 °C, read-out: MIC E. coli.
[6] abbreviates: ATCC25923, broth microdilution, 16 to 512 µg/mL, 18–24 h at 36 °C, read-out: MIC S. aureus.

In general, IC50 refers to the concentration at which inhibition is half-maximal. For orientation: MIC means the lowest concentration that inhibits growth of the organism.

Each structure is given as a SMILES string. In brackets after ≈: the same amount, converted by molar mass. Read-outs that look alike come from different tables or passages of the source. Bounds are passed on as bounds.

For the molecule `C=CCc1cc(Cn2cc(C(=O)Nc3ccccc3C(N)=O)nn2)c(O)c(OC)c1` [9a, 1-(5-allyl-2-hydroxy-3-methoxybenzyl)-N-(2-carbamoylphenyl)-1H-1,2,3-triazole-4-carboxamide], the IC50 in assay [1] (setting [4]) is more than 40 µM. In addition, in assay [1] (setting [4]), the “Anti-Parasitic Activity IC50 (µM) 95% CI, T. brucei” value is “did not show detectable values of IC50”. Further, the minimal inhibitory concentration (MIC) in assay [2] (setting [5]) and in assay [3] (setting [6]) was more than 512 µg/mL throughout.

In the case of `C=CCc1cc(Cn2cc(C(=O)Nc3ccc(OC)cc3C(N)=O)nn2)c(O)c(OC)c1` [9b, 1-(5-allyl-2-hydroxy-3-methoxybenzyl)-N-(2-carbamoyl-4-methoxyphenyl)-1H-1,2,3-triazole-4-carboxamide], the IC50 in assay [1] (setting [4]) was determined as 16.4 µM. In addition, the MIC in assay [2] (setting [5]) and in assay [3] (setting [6]) was more than 512 µg/mL in each case.

As to `C=CCc1cc(Cn2cc(C(=O)Nc3ccc(F)cc3C(N)=O)nn2)c(O)c(OC)c1` [9c, 1-(5-allyl-2-hydroxy-3-methoxybenzyl)-N-(2-carbamoyl-4-fluorophenyl)-1H-1,2,3-triazole-4-carboxamide], the IC50 in assay [1] (setting [4]) amounted to 21 µM. The minimum inhibitory concentration (MIC) is 256 to 512 µg/mL (≈ 602 to 1200 µM) in assay [2] (setting [5]); more than 512 µg/mL in assay [2] (ATCC25922, second value printed after the MIC of the preceding sentence, read-out: MIC E. coli ("the only MIC evaluated")); 256 µg/mL (≈ 602 µM) in assay [3] (setting [6]); not above 512 µg/mL in assay [3] (ATCC25923, second value printed after the MIC of the preceding sentence, read-out: MIC S. aureus ("the only MIC evaluated")).

On to `C=CCc1cc(Cn2cc(C(=O)Nc3ccc(Cl)cc3C(N)=O)nn2)c(O)c(OC)c1` [9d, 1-(5-allyl-2-hydroxy-3-methoxybenzyl)-N-(2-carbamoyl-4-chlorophenyl)-1H-1,2,3-triazole-4-carboxamide], for which, in assay [1] (setting [4]), the IC50 was 15.9 µM. For the same molecule, the MIC in assay [2] (setting [5]) and in assay [3] (setting [6]) was more than 512 µg/mL throughout.

Turning to `C=CCc1cc(Cn2cc(-c3nc4ccccc4c(=O)[nH]3)nn2)c(O)c(OC)c1` [10a, 2-(1-(5-allyl-2-hydroxy-3-methoxybenzyl)-1H-1,2,3-triazol-4-yl)quinazolin-4(3H)-one], in assay [1] (setting [4]), the IC50 was more than 40 µM and the “Anti-Parasitic Activity IC50 (µM) 95% CI, T. brucei” value is listed as “did not show detectable values of IC50”. In addition, the MIC in assay [2] (setting [5]) is more than 512 µg/mL. Further, in assay [3] (setting [6]), the MIC is more than 512 µg/mL.

On to `C=CCc1cc(Cn2cc(-c3nc4ccc(OC)cc4c(=O)[nH]3)nn2)c(O)c(OC)c1` [10b, 2-(1-(5-allyl-2-hydroxy-3-methoxybenzyl)-1H-1,2,3-triazol-4-yl)-6-methoxyquinazolin-4(3H)-one], for which the IC50 in assay [1] (setting [4]) was 19.9 µM. For the same molecule, the MIC in assay [2] (setting [5]) and in assay [3] (setting [6]) was more than 512 µg/mL each time.

For the molecule `C=CCc1cc(Cn2cc(-c3nc4ccc(F)cc4c(=O)[nH]3)nn2)c(O)c(OC)c1` [10c, 2-(1-(5-allyl-2-hydroxy-3-methoxybenzyl)-1H-1,2,3-triazol-4-yl)-6-fluoroquinazolin-4(3H)-one], the IC50 in assay [1] (setting [4]) worked out at 11.2 µM. Further, the MIC in assay [2] (setting [5]) and in assay [3] (setting [6]) was more than 512 µg/mL throughout.

Regarding `C=CCc1ccc(O)c(OC)c1` [Eugenol, eugenol, reference compound], the IC50 in assay [1] (72 h) is more than 40 µM. The MIC in assay [2] (setting [5]) and in assay [3] (setting [6]) was more than 512 µg/mL each time.

Turning to `C=CCc1ccc(OCc2cn(CC(=O)Nc3ccccc3C(=O)O)nn2)c(OC)c1` [compound 13, 2-(2-(4-((4-allyl-2-methoxyphenoxy)methyl)-1H-1,2,3-triazol-1-yl)acetamido) benzoic acid], in assay [1] (setting [4]), the half-inhibitory concentration (IC50) was more than 40 µM. For the same molecule, the MIC in assay [2] (setting [5]) and in assay [3] (setting [6]) was more than 512 µg/mL each time.

For the molecule `C=CCc1cc(Cn2cc(-c3nc4ccccc4c(=O)o3)nn2)c(O)c(OC)c1` [compound 14, 2-(1-(5-allyl-2-hydroxy-3-methoxybenzyl)-1H-1,2,3-triazol-4-yl)-4H-benzo[d][1,3]oxazin-4-one], in assay [1] (setting [4]), the concentration for half-maximal inhibition (IC50) was determined as 31.7 µM. Besides, the MIC in assay [2] (setting [5]) and in assay [3] (setting [6]) was more than 512 µg/mL each time.
